Laboratory results reported in PMC5750217 (Nature Communications, 2018).

Molecular target: T1, A1-T458S/T459C (mutant ASCT1) (Homo sapiens, UniProt P43007, T458S/T459C)
T1 construct: expressed in transfected cells; host or cells: Xenopus laevis oocytes (cRNA injection)
T1 sequence (P43007 1-532 T458S/T459C): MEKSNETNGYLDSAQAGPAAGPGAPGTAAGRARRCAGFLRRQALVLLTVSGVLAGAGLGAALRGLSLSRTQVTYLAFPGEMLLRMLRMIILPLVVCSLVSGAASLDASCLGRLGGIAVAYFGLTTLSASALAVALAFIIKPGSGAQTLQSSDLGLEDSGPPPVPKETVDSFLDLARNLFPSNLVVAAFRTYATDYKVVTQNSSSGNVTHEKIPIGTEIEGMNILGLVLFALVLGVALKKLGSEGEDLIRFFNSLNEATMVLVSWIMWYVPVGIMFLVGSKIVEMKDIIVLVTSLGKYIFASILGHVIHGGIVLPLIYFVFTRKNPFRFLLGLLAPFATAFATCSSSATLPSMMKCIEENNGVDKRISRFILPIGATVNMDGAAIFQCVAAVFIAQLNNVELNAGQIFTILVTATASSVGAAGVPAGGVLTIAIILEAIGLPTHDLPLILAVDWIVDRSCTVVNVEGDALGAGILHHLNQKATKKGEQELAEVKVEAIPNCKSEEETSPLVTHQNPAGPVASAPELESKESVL
Test: Two electrode voltage clamp, substrate-activated anion current in oocytes expressing A1-T458S/T459C
Format: cell-based
Conditions: for EC50: A1-T458S/T459C in oocytes, NO3−-containing buffer, current at +60 mV
Method: All chemicals were obtained from Sigma unless otherwise stated. Stage V oocytes were harvested from female Xenopus laevis (frogs) which were obtained from Nasco (Fort Alkinson, USA). Frogs were anaesthetised with 6.5 mM tricaine neutralised with 7.14 mM sodium bicarbonate. After making an incision in the abdomen of the frog, ovarian sacs were removed and stored in OR-2 buffer (82.5 mM NaCl, 2 mM KCl, 1 mM MgCl2, 5 mM hemisodium HEPES, pH 7.5). This surgical procedure follows a protocol (#2016/970) approved by the University of Sydney Animal Ethics Committee under the Australian Code of Practice for the Care and Use of Animals for Scientific Purposes. To isolate oocytes, the ovarian sacs were cut into small sections before being digested by agitation with 2 mg per ml Collagenase A for 1–2 h. Following digestion, defoliculated oocytes were initially rinsed with OR-2, followed by frog Ringer’s solution (96 mM NaCl, 2 mM KCl, 1 mM MgCl2, 1.8 mM CaCl2, 5 mM hemisodium HEPES, pH 7.5). A total of 20 ng of transporter cRNA was injected into oocytes which were stored in frog Ringer’s solution supplemented with 0.1% gentamycin, 50 μg per ml tetracycline, 2.5 mM pyruvate and 0.5 mM theophylline at 16–18 °C.
After 2–4 days of microinjection, current recordings were made using the two electrode voltage clamp technique with a Geneclamp 500 amplifier (Axon Instruments, Foster City, CA) interfaced with a MacLab 2e chart recorder (ADI Instruments, Sydney, Australia) using the chart software, and a Digidata 1322A (Axon Instruments) controlled by an IBM-compatible computer using the pClamp software (version 10, Molecular Devices, Union City, CA). The current–voltage relationships for substrate elicited conductances were obtained by subjecting cells to 200 ms voltage pulses between −100 mV and + 60 mV in 10 mV steps. Current–voltage relationships were calculated by subtracting steady state current measurements in the absence of substrate from corresponding current measurements in the presence of substrate.
Recording solution for all experiments (except where otherwise stated) was normal frog Ringer’s solution (Cl^−-containing buffer) with complete NO3 ^− substitution for Cl^−. For Na^+ titrations, NMDG^+ was used as the substitute cation. The pH of recording solutions was adjusted using HNO3 and NaOH or KOH. Recordings were made with the bath grounded via a 3 M KCl/agar bridge connected to a 3 M KCl reservoir to minimise offset potentials. Cells were washed with Cl^−-containing buffer between substrate applications to ensure that NO3 loading of the cell was not significant. […]

N[C@@H](CCC(=O)Nc1ccc([N+](=O)[O-])cc1)C(=O)O [GPNA, glutamyl-p-nitroanilide]
GPNA % inhibition of L-serine activated current (A1-T458S/T459C, GPNA co-applied with EC50 of L-serine, 300 µM GPNA / 1 mM GPNA (Table 1 footnote)): 41 ± 4% | IC50 (A1-T458S/T459C, co-applied with EC50 of L-serine, read-out: IC50 for inhibition of L-serine activated current): 600 ± 200 µM

NC(=O)CC[C@H](N)C(=O)O [L-glutamine]
EC50: 90 ± 10 µM

N[C@@H](CO)C(=O)O [L-serine]
EC50: 45 ± 5 µM
